In paper PMC8131106 (eLife, 2021):
Positions count from the first letter of the chain named. Names and notes keep the numbering of the source.

How the values were obtained:
LeuT [1] = molecular target: T1, LeuT (Aquifex aeolicus, UniProt O67854, R375D); experiment: X-ray crystal structure, […] A; type: binding; settings: Na+ bound, outward-facing occluded
T1 construct: gene snf; pET16b, C-terminal 8xHis tag removed with thrombin, expressed in E. coli C41/C43(DE3), purified in DDM then OG; Cys pairs with spin labels for DEER

LeuT [2] = molecular target: T2, LeuT (Aquifex aeolicus, UniProt O67854, R375A); experiment: X-ray crystal structure, […] A; type: binding; settings: Na+ bound, outward-facing occluded
T2 construct: gene snf; pET16b, C-terminal 8xHis tag removed with thrombin, expressed in E. coli C41/C43(DE3), purified in DDM then OG; Cys pairs with spin labels for DEER

LeuT [3] = molecular target: T3, LeuT (Aquifex aeolicus, UniProt O67854); experiment: X-ray crystal structure, […] A; type: binding; settings: Na+ bound, outward-facing occluded
T3 construct: gene snf; pET16b, C-terminal 8xHis tag removed with thrombin, expressed in E. coli C41/C43(DE3), purified in DDM then OG; Cys pairs with spin labels for DEER

LeuT [4] = molecular target: T4, LeuT (Aquifex aeolicus, UniProt O67854, H7C/R86C/A309C, form not given); experiment: DEER EPR distance distributions; type: binding; settings: […] NaCl, fourfold molar excess of Leu; each spin-label pair in its own construct (pair also printed as […])
T4 construct: gene snf; pET16b, C-terminal 8xHis tag removed with thrombin, expressed in E. coli C41/C43(DE3), purified in DDM then OG; Cys pairs with spin labels for DEER

LeuT [5] = molecular target: T5, LeuT (Aquifex aeolicus, UniProt O67854, R375D, form not given); experiment: DEER EPR distance distributions; type: binding; settings: […] NaCl, fourfold molar excess of Leu; each spin-label pair in its own construct (pair also printed as […])
T5 construct: gene snf; pET16b, C-terminal 8xHis tag removed with thrombin, expressed in E. coli C41/C43(DE3), purified in DDM then OG; Cys pairs with spin labels for DEER

dDAT = molecular target: T6, dDAT (Drosophila melanogaster, UniProt Q7K4Y6); settings: […] min, room temperature, labelled compound
T6 construct: gene DAT

[6] = substrate: NCCc1ccc(O)c(O)c1; experiment: cells, lysate or membranes; settings: pH […]-7.[…] min, […] DA, labelled compound

T6 sequence (Q7K4Y6 whole entry): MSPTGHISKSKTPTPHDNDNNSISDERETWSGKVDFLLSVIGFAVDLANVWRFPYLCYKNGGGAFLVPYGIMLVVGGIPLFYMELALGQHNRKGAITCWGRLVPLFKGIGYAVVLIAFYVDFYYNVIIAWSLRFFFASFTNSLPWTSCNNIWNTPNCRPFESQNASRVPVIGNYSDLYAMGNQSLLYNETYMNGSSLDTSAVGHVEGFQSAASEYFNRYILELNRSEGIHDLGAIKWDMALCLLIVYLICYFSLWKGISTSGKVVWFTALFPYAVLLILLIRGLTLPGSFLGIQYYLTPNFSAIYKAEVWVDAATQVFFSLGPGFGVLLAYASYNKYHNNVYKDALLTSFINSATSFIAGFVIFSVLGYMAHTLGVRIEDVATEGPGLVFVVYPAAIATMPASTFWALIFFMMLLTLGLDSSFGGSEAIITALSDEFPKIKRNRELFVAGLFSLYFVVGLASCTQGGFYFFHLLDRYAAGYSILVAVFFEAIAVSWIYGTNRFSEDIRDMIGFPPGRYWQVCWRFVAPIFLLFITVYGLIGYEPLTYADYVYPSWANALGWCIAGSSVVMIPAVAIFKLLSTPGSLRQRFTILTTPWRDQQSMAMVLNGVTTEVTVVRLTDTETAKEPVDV

C[C@H](N)C(=O)O [L-Ala]
X-ray crystal structure, 2.6 A (LeuT [1]): LeuT WT, LeuT R375A, and LeuT R375D solved in the L-Ala and Na^+ bound OO conformation | X-ray crystal structure, 2.1 A (LeuT [2]): LeuT WT, LeuT R375A, and LeuT R375D solved in the L-Ala and Na^+ bound OO conformation | X-ray crystal structure, 2.1 A (LeuT [3]): L-Ala, Na1, and Na2 (purple spheres) could be modeled into their respective binding sites

CC(C)C[C@H](N)C(=O)O [Leu]
DEER EPR distance distributions (LeuT [4]): Leu binding to Na^+-bound LeuT restores the conformational preference to the OO form | DEER EPR distance distributions (LeuT [5]): Na^+/Leu resets the IC gate to the IO conformation

NCCc1ccc(O)c(O)c1 [dopamine]
[3H]DA uptake, intact fly brains (dDAT): uptake of [^3H]DA in hDAT WT Drosophila brains was not significantly different from that measured in dDAT

B1: hDAT (Homo sapiens) (protein)
chain: MSKSKCSVGLMSSVVAPAKEPNAVGPKEVELILVKEQNGVQLTSSTLTNPRQSPVEAQDRETWGKKIDFLLSVIGFAVDLANVWRFPYLCYKNGGGAFLVPYLLFMVIAGMPLFYMELALGQFNREGAAGVWKICPILKGVGFTVILISLYVGFFYNVIIAWALHYLFSSFTTELPWIHCNNSWNSPNCSDAHPGDSSGDSSGLNDTFGTTPAAEYFERGVLHLHQSHGIDDLGPPRWQLTACLVLVIVLLYFSLWKGVKTSGKVVWITATMPYVVLTALLLRGVTLPGAIDGIRAYLSVDFYRLCEASVWIDAATQVCFSLGVGFGVLIAFSSYNKFTNNCYRDAIVTTSINSLTSFSSGFVVFSFLGYMAQKHSVPIGDVAKDGPGLIFIIYPEAIATLPLSSAWAVVFFIMLLTLGIDSAMGGMESVITGLIDEFQLLHRHRELFTLFIVLATFLLSLFCVTNGGIYVFTLLDHFAAGTSILFGVLIEAIGVAWFYGVGQFSDDIQQMTGQRPSLYWRLCWKLVSPCFLLFVVVVSIVTFRPPHYGAYIFPDWANALGWVIATSSMAMVPIYAAYKFCSLPGSFREKLAYAIAPEKDRELVDRGEVRQFTLRHWLKV
Km [6]: 5.7 ± 1.4 µM

B2: hDAT (Homo sapiens; R445C) (protein)
chain: B1 chain with R445C
Km [6]: 0.10 ± 0.07 µM
